Values of other authors in patent US7714131B2, “Process for the stereoselective preparation of (−)-halofenate and derivatives thereof” (Metabolex, Inc., priority 2005, dated 2010).

Target: cytochrome P450 2C9 (Homo sapiens, UniProt P11712)
Settings: compared to the (+)-enantiomer of halofenic acid

Chain of cytochrome P450 2C9 (P11712 whole entry): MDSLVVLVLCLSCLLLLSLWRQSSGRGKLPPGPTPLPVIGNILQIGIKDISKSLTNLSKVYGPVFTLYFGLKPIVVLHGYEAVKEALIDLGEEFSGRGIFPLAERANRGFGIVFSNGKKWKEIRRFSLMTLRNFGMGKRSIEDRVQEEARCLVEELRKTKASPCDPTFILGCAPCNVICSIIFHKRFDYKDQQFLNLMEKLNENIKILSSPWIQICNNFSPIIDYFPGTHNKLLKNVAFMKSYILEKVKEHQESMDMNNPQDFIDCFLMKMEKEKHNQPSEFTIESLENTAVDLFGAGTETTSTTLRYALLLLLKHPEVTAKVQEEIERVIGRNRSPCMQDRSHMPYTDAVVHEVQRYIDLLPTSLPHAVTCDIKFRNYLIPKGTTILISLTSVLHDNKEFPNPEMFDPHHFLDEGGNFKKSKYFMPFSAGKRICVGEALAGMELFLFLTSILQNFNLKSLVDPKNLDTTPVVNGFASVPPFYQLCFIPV

- ability to inhibit cytochrome P450 2C9, relative activity: about twenty-fold less active
SMILES: O=C(O)C(Oc1cccc(C(F)(F)F)c1)c1ccc(Cl)cc1 (single isomer, unassigned; (-)) [(−)-enantiomer of halofenic acid, (4-chlorophenyl)(3-trifluoromethylphenoxy)acetic acid]
